Ki and IC50 data for six molecules are collected here from patent US20240190847A1, “INDOLINE DERIVATIVES AS DDR1 AND DDR2 INHIBITORS” (CHIESI FARMACEUTICI S.P.A., priority 2021, published 2024).

By Ki is commonly meant a dissociation constant, usually derived from enzyme kinetics or from competition with a known ligand.

Assay [1] deals with DDR1. Kind of assay: DDR1 LanthaScreen Europium Kinase Binding assay. As to conditions: 5 nM DDR1, 1 hour at room temperature, Ki from IC50 by Cheng-Prusoff, read-out: Ki DDR1. As to the method: (§1) DDR1 and DDR2 binding assays were performed using Life Technologies LanthaScreen™ Europium Kinase Binding assay. The compounds were incubated with 5 nM DDR1 (Carna Biosciences) or 5 nM DDR2 (Life Technologies) for 1 hour at room temperature in white 384-well OptiPlate (PerkinElmer), containing 20 nM or 10 nM Kinase Tracer 178 respectively and 2 nM Europium labelled anti-GST antibody (Life Technologies) in assay buffer (50 mM HEPES pH 7.5, 10 mM MgCl2, 1 mM EGTA and 0.01% BRIJ35). The ratio of fluorescence emission 665 nm/615 nm after excitation at 340 nm was obtained using the Tecan Spark 20M plate reader. IC50 values were determined in GraphPad Prism 8.0 software, using 4 parameter model: log(inhibitor) vs. response. IC50 values were converted in Ki using the Cheng-Prusoff equation (Ki=IC50/(1+[Tracer]/Kd).

For assay [2], the target named is DDR2. The assay is described as follows: DDR2 LanthaScreen Europium Kinase Binding assay. To be noted: 5 nM DDR2, 1 hour at room temperature, Ki from IC50 by Cheng-Prusoff, read-out: Ki DDR2. As for the experimental part: as §1
For assay [3], the system named is DDR1 receptor. Kind of assay: DDR1 cell based assay (PathHunter U2OS DDR1). To be noted: U2OS-DDR1 cells, bovine Type II Collagen 20 μg/ml stimulation. As for the experimental part:
The inhibition of DDR1 receptor activation by compounds was evaluated by PathHunter® U2OS DDR1 assay (Eurofins DiscoverX), according to the manufacturer's instructions. Briefly, U2O5-DDR1 cells were seeded in white 384-well plates at a density of 5000 cells/well and incubated for 2 hours at 37° C. and 5% CO2. Cells were then treated with compounds at different concentrations and incubated for 30 minutes, before stimulation with bovine Type II Collagen 20 μg/ml and incubation overnight at 37° C. and 5% CO2. PathHunter Detection Reagents were prepared according to the protocol provided by DiscoverX and 20 μl/well of this mix were added to each well. After incubating the plates for 1 hour at room temperature in the dark, luminescence signal was acquired with a plate reader. Raw data were normalized to vehicle control (0% for normalization) and positive control (100% for normalization; cells treated with 20 μg/ml collagen II) and IC50 parameters were calculated in GraphPad Prism 8.0 software, using sigmoidal dose-response curve fitting with variable slope.

Assay [4] concerns DDR2. Kind of assay: DDR2 cell based assay (phospho-ELISA in HEK293T-DDR2 cells). Also on record: species or system human. To be noted: DDR2 phosphorylation, bovine Type II Collagen 50 μg/ml, read-out: IC50DDR2. As for the experimental part:
The inhibition of DDR2 phosphorylation by compounds was evaluated in HEK293T-DDR2 recombinant cells by phospho-ELISA assay. Briefly, HEK293T-DDR2 cells were seeded in poly-D-lysine-coated 24-well plates at a density of 250.000 cells/well and incubated for 1.5 hours at 37° C. and 5% CO2 in DMEM+10% FBS. After that, the medium was changed to serum-free DMEM and cells were incubated for 3 hours. Then. test compounds were added at different concentrations 30 minutes before stimulation with bovine Type II Collagen at 50 μg/ml for further 3 hours. For DDR2 phospho-ELISA assay (DuoSet IC Human Phospho-DDR2; R&D Systems), protein extracts were obtained by adding 60 μl/well of lysis buffer prepared according to the manufacturer's instructions.
Protein concentration in the samples was determined by BCA assay and the levels of phospho-DDR2 were determined following R&D Systems indications. Raw data were normalized to maximal inhibition control (0% for normalization) and positive control (100% for normalization; cells treated with 20 μg/ml collagen II) and IC50 parameters were calculated in GraphPad Prism 8.0 software, using sigmoidal dose-response curve fitting with variable slope.
(ELISA stands for enzyme-linked immunosorbent assay.)

Consider `CN1CCN(Cc2cc(C(=O)Nc3ccc4c(c3)N(Cc3cnc(Nc5cnn(C)c5)nc3)CC4)cc(C(F)(F)F)c2)CC1` [Example 4, N-(1-((2-((1-methyl-1H-pyrazol-4-yl)amino)pyrimidin-5-yl)methyl)indolin-6-yl)-3-((4-methylpiperazin-1-yl)methyl)-5-(trifluoromethyl)benzamide], for which the Ki in assay [1] and in assay [2] was under 25 nM throughout. In addition, the IC50 in assay [3] and in assay [4] was under 25 nM in each case.

For `CN1CCN(Cc2cc(C(=O)Nc3ccc4c(c3)N(Cc3nccnc3N)CC4)cc(C(F)(F)F)c2)CC1` [Example 5, N-(1-((3-aminopyrazin-2-yl)methyl)indolin-6-yl)-3-((4-methylpiperazin-1-yl)methyl)-5-(trifluoromethyl)benzamide], the inhibition constant Ki in assay [1] and in assay [2] was under 25 nM throughout. The values for the IC50 in assay [3] and in assay [4] were under 25 nM and 25 to 50 nM, respectively.

Consider `CC(=O)Nc1ccc(CN2CCc3ccc(C(=O)Nc4ccc(CN5CCN(C)CC5)c(C(F)(F)F)c4)cc32)cn1` [Example 13, 1-((6-acetamidopyridin-3-yl)methyl)-N-(4-((4-methylpiperazin-1-yl)methyl)-3-(trifluoromethyl)phenyl)indoline-6-carboxamide], for which the Ki in assay [1] was under 25 nM; in assay [2], 25 to 50 nM. The IC50 in assay [3] is under 25 nM; in assay [4], 50 to 80 nM.

Regarding `CNc1ccc(CN2CCc3ccc(C(=O)Nc4ccc(CN5CCN(C)CC5)c(C(F)(F)F)c4)cc32)cn1` [Example 14, 1-((6-(methylamino)pyridin-3-yl)methyl)-N-(4-((4-methylpiperazin-1-yl)methyl)-3-(trifluoromethyl)phenyl)indoline-6-carboxamide], the Ki was under 25 nM in assay [1] and 25 to 50 nM in assay [2]. Moreover, the IC50 in assay [3] is under 25 nM; in assay [4], 50 to 80 nM.

As for `COCCn1cc(Nc2ncc(CN3CCc4ccc(C(=O)Nc5cccc(C(F)(F)F)c5)cc43)cn2)cn1` [Example 16, 1-((2-((1-(2-methoxyethyl)-1H-pyrazol-4-yl)amino)pyrimidin-5-yl)methyl)-N-(3-(trifluoromethyl)phenyl)indoline-6-carboxamide], the Ki in assay [1] and in assay [2] was under 25 nM each time. Besides, the IC50 in assay [3] and in assay [4] was under 25 nM throughout.

Take `CN1CCN(Cc2cc(NC(=O)c3ccc4c(c3)N(Cc3cnc(Nc5cnn(C)c5)nc3)CC4)cc(C(F)(F)F)c2)CC1` [Example 18, 1-((2-((1-methyl-1H-pyrazol-4-yl)amino)pyrimidin-5-yl)methyl)-N-(3-((4-methylpiperazin-1-yl)methyl)-5-(trifluoromethyl)phenyl)indoline-6-carboxamide]: the inhibitory constant (Ki) in assay [1] and in assay [2] was under 25 nM in each case. Also, the IC50 in assay [3] and in assay [4] was under 25 nM in each case.
